ChEMBL document CHEMBL3526090, “Pharmacokinetic mechanism involved in the prolonged high retention of laninamivir in mouse respiratory tissues after intranasal administration of its prodrug laninamivir octanoate” (Drug Metab Dispos, 2013)

Columns and labels:
Settings in all cases: in vivo, inhaled_or_intranasal
[1] = Drug uptake in BALB/cAnNCrlCrlj mouse bronchial gland at 0.5 umol/kg administered intranasally measured at 24 hrs by microautoradiographic analysis; format: ADME, BALB/cAnNCrlCr
[2] = Drug uptake in bronchi of BALB/cAnNCrlCrlj mouse at 0.5 umol/kg administered intranasally measured at 0.25 hrs by microautoradiographic analysis; format: ADME, BALB/cAnNCrlCr, Bronchus
Blood = assay: Drug uptake in BALB/cAnNCrlCrlj mouse pulmonary arterial blood at 0.5 umol/kg administered intranasally measured at 24 hrs by microautoradiographic analysis; format: ADME, tissue-based, BALB/cAnNCrlCr
[3] = Drug uptake in BALB/cAnNCrlCrlj mouse Goblet cells at 0.5 umol/kg administered intranasally measured at 24 hrs by microautoradiographic analysis; format: ADME, BALB/cAnNCrlCr
Lung = assay: Drug uptake in lung of BALB/cAnNCrlCrlj mouse at 0.5 umol/kg administered intranasally measured at 0.25 hrs by microautoradiographic analysis; format: ADME, tissue-based, BALB/cAnNCrlCr
[4] = Drug uptake in BALB/cAnNCrlCrlj mouse ciliated columnar epithelial cells at 0.5 umol/kg administered intranasally measured at 24 hrs by microautoradiographic analysis; format: ADME, cell-based, BALB/cAnNCrlCr, Epithelial cell
[5] = Drug uptake in BALB/cAnNCrlCrlj mouse cuboidal epithelial cells at 0.5 umol/kg administered intranasally measured at 24 hrs by microautoradiographic analysis; format: ADME, cell-based, BALB/cAnNCrlCr, Epithelial cell
[6] = Drug uptake in BALB/cAnNCrlCrlj mouse terminal bronchiole at 0.5 umol/kg administered intranasally measured at 24 hrs by microautoradiographic analysis; format: ADME, tissue-based, BALB/cAnNCrlCr
[7] = Drug uptake in BALB/cAnNCrlCrlj mouse pulmonary alveoli at 0.5 umol/kg administered intranasally measured at 24 hrs by microautoradiographic analysis; format: ADME, BALB/cAnNCrlCr
[8] = Drug uptake in BALB/cAnNCrlCrlj mouse alveolar bronchiole at 0.5 umol/kg administered intranasally measured at 24 hrs by microautoradiographic analysis; format: ADME, BALB/cAnNCrlCr

Measured: Drug uptake

CCCCCCCC(=O)OC[C@@H](O)[C@@H](OC)[C@@H]1OC(C(=O)O)=C[C@H](N[14C](=N)N)[C@H]1NC(C)=O
Active: all assays above
